B1: recombinant human Ang1 (rhAng1) (ligand, UniProt Q15389 16-498, looked up)
chain: HIGCSNQRRSPENSGRRYNRIQHGQCAYTFILPEHDGNCRESTTDQYNTNALQRDAPHVEPDFSSQKLQHLEHVMENYTQWLQKLENYIVENMKSEMAQIQQNAVQNHTATMLEIGTSLLSQTAEQTRKLTDVETQVLNQTSRLEIQLLENSLSTYKLEKQLLQQTNEILKIHEKNSLLEHKILEMEGKHKEELDTLKEEKENLQGLVTRQTYIIQELEKQLNRATTNNSVLQKQQLELMDTVHNLVNLCTKEGVLLKGGKREEEKPFRDCADVYQAGFNKSGIYTIYINNMPEPKKVFCNMDVNGGGWTVIQHREDGSLDFQRGWKEYKMGFGNPSGEYWLGNEFIFAITSQRQYMLRIELMDWEGNRAYSQYDRFHIGNEKQNYRLYLKGHTGTAGKQSSLILHGADFSTKDADNDNCMCKCALMLTGGWWFDACGPSNLNGMFYTAGQNHGKLNGIKWHYFKGPSYSLRSTTMMIRPLDF
notes: angiopoietin-1, human, recombinant; also called angiopoietin-1; source: bought: R&D Systems (named for the Boyden chamber experiments)

Columns and labels:
Tie2 in HMVEC-DBls = experiment: in vitro Tie2 phosphorylation (immunoprecipitation/immunoblot), HMVEC-DBl; format: cell-based, human; details: VT 10 ng/mL vs Ang1 200 ng/mL, presence or absence of serum/supplements, Fig7F
Description: (§1) Figure 7 In vitro Vasculotide vs. Ang1 stimulations: effects on Tie2 receptor phosphorylation in primary endothelial cells—HUVECs (A-E) and HMVEC-DBls (F) • A–F Primary human umbilical vein endothelial cells (HUVECs) or primary human dermal microvascular endothelial cells (HMVEC-DBls) were stimulated at 80% confluency with Vasculotide (treatment), Ang1 (positive control; ligand of Tie2), PBS (vehicle control), or VEGF (negative control; non-ligand of Tie2). Tie2 was immunoprecipitated from cell lysates and immunoblotted for total Tie2 or phosphotyrosine. […] Source data are available online for this figure. […]
(§2) Nodule areas were then […]
(§3) unit converted (to μm2) and normalized to total lung section area (including air spaces) using ROI measurements from ImageJ software (NIH).
(§4) 7. Histological assessment of primary tumor viability and hypoxia
(§5) 5-μm thick sections of PFA-fixed paraffin-embedded mammary fat pad tumors were subjected to: (i) standard hematoxylin and eosin (H&E) staining to visualize viable vs. necrotic regions; or (ii) standard IHC staining with a goat anti-human carbonic anhydrase IX (CAIX or CA9) antibody (R&D Systems AF2188, 1:80 dilution) plus hematoxylin counterstain to visualize hypoxic regions. […]
(§6) IHC staining for CAIX further marks a hypoxic band at the edge of the viability rim bordering the necrotic core – the thickness of this hypoxic edge was averaged over 12 measurements spaced 30o apart (see Fig. 5E).
(§7) 8. Western immunoblotting for total or phosphorylated Tie2
(§8) Cultured ECs and TCs were lysed in RIPA lysis buffer as previously described (Bogdanovic et al, 2006).
(§9) Lung/ liver/ kidney tissues, which had been snap-frozen in liquid nitrogen once harvested from mice, were homogenized in RIPA lysis buffer (50 mM Tris-HCl pH 7.5, 150 mM NaCl, 1% Igepal, 0.5% sodium deoxycholate, 0.1% SDS, 1 mM Na3VO4 and protease inhibitors) at 4 °C. […]
(§10) Semi-quantitative densitometry analysis of immunoblots was performed using the ChemiGenius2 bioimaging system and GeneSnap/GeneTools software (Syngene). […]

Tie2 in HUVECs = experiment: in vitro Tie2 phosphorylation (immunoprecipitation/immunoblot), HUVEC; format: cell-based, human; details: Ang1 15–400 ng/mL (0.05–1.43 nM), VT 5–100 ng/mL (0.36–7.1 nM), 10, 15 or 45 min, with or without starvation
Description: as §1, §2, §3, §4, §5, §6, §7, §8, §9, §10

Row | Molecule | Tie2 phosphorylation (Tie2 in HMVEC-DBls) | Tie2 phosphorylation (Tie2 in HMVEC-DBls; listed as VT) | Tie2 phosphorylation (Tie2 in HUVECs) | Tie2 phosphorylation (Tie2 in HUVECs; listed as VT)
1 | CHHHRHSF [Vasculotide, 4-armed maleimide-functionalized polyethylene glycol (PEG) backbone to link together four cysteine-capped T7 peptides, that is, CHHHRHSF] | did not activate Tie2 receptors in HMVEC-DBls | did not have similar activity as equimolar Ang1 | did not lead to increases in the pTie2/Tie2 ratio | did not lead to any appreciable induction of Tie2 phosphorylation
2 | B1 | strongly and consistently activated Tie2 phosphorylation |  | strongly and consistently activated Tie2 phosphorylation | 
